Results published in PMC10321576, “Cyclic peptides target the aromatic cage of a PHD-finger reader domain to modulate epigenetic protein function” (Chemical Science, 2023).
Peptide text beside a SMILES is read from it.

Biological target: T1, KDM7B PHD-finger (Homo sapiens, UniProt Q9UPP1)
T1 construct: KDM7B 1-66; His-tag (C); made in house
T1 sequence (Q9UPP1 1-66 isoform Q9UPP1-2): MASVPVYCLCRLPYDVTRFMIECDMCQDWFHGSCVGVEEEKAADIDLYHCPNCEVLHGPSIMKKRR
Test: Protein NMR 1H-15N HSQC chemical shift perturbation
Assay type: binding
Text: To better elucidate OC9 interactions at a single residue level, we conducted protein NMR studies using isotopically labelled PHD-finger.[48] Comparison of ^1H–^15N HSQC spectra for isotopically labelled apo and OC9-bound protein (Fig. 4a), independently assigned using ^13C,^15N 3D experiments (Fig. S21, NMR ESI ^†), identified 24 out of 66 protein residues with significant (standard deviation, s > 1) chemical shift perturbation (CSP, Δδ) of their backbone amides (Fig. 4b).
(a) ^1H–^15N HSQC of KDM7B PHD-finger in the apo (black) or bound forms with OC9 (purple, 1 : 1) or H3_1–21K4me3 (green, 3 : 1). (b) ^1H and ^15N chemical shift changes for apo vs. + OC9 were combined and weighted to give chemical shift perturbation (CSP) (Δδ) values. Standard deviation (σ) of Δδ are indicated (>1 pink, >2 purple). (c) TALOS+ predicts similar secondary structure elements in apo and OC9-bound solution protein complexes (light grey) to those found in PDB ID 3KV4 (dark grey). […] (e) Shielded ^1H-NMR signals centred around −0.5 ppm belonging to the OC9 V10 γ-methyl groups are observed in some OC9–PHD complexes, but not in apo protein, or complexes with OC9 V10A and OC9 V10DV. The V10^OC9 γ-methyl signals have NOE interactions (black semi-circles) with the W29^PHD indole, which itself is shielded upon binding of OC9 (indicated by ΔδH values).

CC(C)[C@@H]1NC(=O)[C@H](CO)NC(=O)[C@@H]2CCCN2C(=O)[C@H](Cc2ccc(O)cc2)NC(=O)[C@@H]2CCCN2C(=O)[C@H](Cc2c[nH]cn2)NC(=O)[C@H]([C@@H](C)O)NC(=O)[C@H](C)NC(=O)[C@H](Cc2ccc(O)cc2)NC(=O)[C@H](Cc2ccc(O)cc2)NC(=O)CSC[C@@H](C(N)=O)NC(=O)[C@H]([C@@H](C)O)NC(=O)[C@H](CCCNC(=N)N)NC(=O)[C@H](Cc2ccccc2)NC1=O [L3A] (HELM PEPTIDE1{[O=C(C[*:3])[*:2]].Y.Y.A.T.H.P.Y.P.S.V.F.R.T.C.[am]}$PEPTIDE1,PEPTIDE1,1:R3-15:R3$$$V2.0; C-terminus assumed)
CSP Ala2 (residue Ala2 amide 1H-15N, Free PHD vs PHD+peptide): 0.0068
CSP Ala2, OC9 vs OC9 L3A (residue Ala2 amide, PHD+OC9 vs PHD+OC9 L3A): 0.0102
CSP Ala42 (residue Ala42 amide 1H-15N, Free PHD vs PHD+peptide): 0.4335
CSP Ala42, OC9 vs OC9 L3A (residue Ala42 amide, PHD+OC9 vs PHD+OC9 L3A): 0.0214
CSP Ala43 (residue Ala43 amide 1H-15N, Free PHD vs PHD+peptide): 0.4214
CSP Ala43, OC9 vs OC9 L3A (residue Ala43 amide, PHD+OC9 vs PHD+OC9 L3A): 0.0343
CSP Arg11 (residue Arg11 amide 1H-15N, Free PHD vs PHD+peptide): 0.0169
CSP Arg11, OC9 vs OC9 L3A (residue Arg11 amide, PHD+OC9 vs PHD+OC9 L3A): 0.0087
CSP Arg18 (residue Arg18 amide 1H-15N, Free PHD vs PHD+peptide): 0.1337
CSP Arg18, OC9 vs OC9 L3A (residue Arg18 amide, PHD+OC9 vs PHD+OC9 L3A): 0.0146
CSP Arg65 (residue Arg65 amide 1H-15N, Free PHD vs PHD+peptide): 0.0010
CSP Arg65, OC9 vs OC9 L3A (residue Arg65 amide, PHD+OC9 vs PHD+OC9 L3A): 0.0115
CSP Arg66 (residue Arg66 amide 1H-15N, Free PHD vs PHD+peptide): 0.0045
CSP Arg66, OC9 vs OC9 L3A (residue Arg66 amide, PHD+OC9 vs PHD+OC9 L3A): 0.0034
CSP Asn52 (residue Asn52 amide 1H-15N, Free PHD vs PHD+peptide): 0.0619
CSP Asn52, OC9 vs OC9 L3A (residue Asn52 amide, PHD+OC9 vs PHD+OC9 L3A): 0.0178
CSP Asp15 (residue Asp15 amide 1H-15N, Free PHD vs PHD+peptide): 0.2511
CSP Asp15, OC9 vs OC9 L3A (residue Asp15 amide, PHD+OC9 vs PHD+OC9 L3A): 0.0129
CSP Asp24 (residue Asp24 amide 1H-15N, Free PHD vs PHD+peptide): 0.0765
CSP Asp24, OC9 vs OC9 L3A (residue Asp24 amide, PHD+OC9 vs PHD+OC9 L3A): 0.0087
CSP Asp28 (residue Asp28 amide 1H-15N, Free PHD vs PHD+peptide): 0.1850
CSP Asp28, OC9 vs OC9 L3A (residue Asp28 amide, PHD+OC9 vs PHD+OC9 L3A): 0.0277
CSP Asp44 (residue Asp44 amide 1H-15N, Free PHD vs PHD+peptide): 0.1299
CSP Asp44, OC9 vs OC9 L3A (residue Asp44 amide, PHD+OC9 vs PHD+OC9 L3A): 0.0065
CSP Asp46 (residue Asp46 amide 1H-15N, Free PHD vs PHD+peptide): 0.1937
CSP Asp46, OC9 vs OC9 L3A (residue Asp46 amide, PHD+OC9 vs PHD+OC9 L3A): 0.0214
CSP Cys8 (residue Cys8 amide 1H-15N, Free PHD vs PHD+peptide): 0.2230
CSP Cys8, OC9 vs OC9 L3A (residue Cys8 amide, PHD+OC9 vs PHD+OC9 L3A): 0.0115
CSP Cys10 (residue Cys10 amide 1H-15N, Free PHD vs PHD+peptide): 0.0457
CSP Cys10, OC9 vs OC9 L3A (residue Cys10 amide, PHD+OC9 vs PHD+OC9 L3A): 0.0102
CSP Cys23 (residue Cys23 amide 1H-15N, Free PHD vs PHD+peptide): 0.1510
CSP Cys23, OC9 vs OC9 L3A (residue Cys23 amide, PHD+OC9 vs PHD+OC9 L3A): 0.0210
CSP Cys26 (residue Cys26 amide 1H-15N, Free PHD vs PHD+peptide): 0.1657
CSP Cys26, OC9 vs OC9 L3A (residue Cys26 amide, PHD+OC9 vs PHD+OC9 L3A): 0.0115
CSP Cys34 (residue Cys34 amide 1H-15N, Free PHD vs PHD+peptide): 0.0274
CSP Cys34, OC9 vs OC9 L3A (residue Cys34 amide, PHD+OC9 vs PHD+OC9 L3A): 0.0065
CSP Cys50 (residue Cys50 amide 1H-15N, Free PHD vs PHD+peptide): 0.0600
CSP Cys50, OC9 vs OC9 L3A (residue Cys50 amide, PHD+OC9 vs PHD+OC9 L3A): 0.0129
CSP Cys53 (residue Cys53 amide 1H-15N, Free PHD vs PHD+peptide): 0.0573
CSP Cys53, OC9 vs OC9 L3A (residue Cys53 amide, PHD+OC9 vs PHD+OC9 L3A): 0.0065
CSP Gln27 (residue Gln27 amide 1H-15N, Free PHD vs PHD+peptide): 0.1418
CSP Gln27, OC9 vs OC9 L3A (residue Gln27 amide, PHD+OC9 vs PHD+OC9 L3A): 0.0110
CSP Glu22 (residue Glu22 amide 1H-15N, Free PHD vs PHD+peptide): 0.1432
CSP Glu22, OC9 vs OC9 L3A (residue Glu22 amide, PHD+OC9 vs PHD+OC9 L3A): 0.0223
CSP Glu38 (residue Glu38 amide 1H-15N, Free PHD vs PHD+peptide): 0.1564
CSP Glu38, OC9 vs OC9 L3A (residue Glu38 amide, PHD+OC9 vs PHD+OC9 L3A): 0.0388
CSP Glu39 (residue Glu39 amide 1H-15N, Free PHD vs PHD+peptide): 0.2246
CSP Glu39, OC9 vs OC9 L3A (residue Glu39 amide, PHD+OC9 vs PHD+OC9 L3A): 0.0231
CSP Glu40 (residue Glu40 amide 1H-15N, Free PHD vs PHD+peptide): 0.1065
CSP Glu40, OC9 vs OC9 L3A (residue Glu40 amide, PHD+OC9 vs PHD+OC9 L3A): 0.0110
CSP Glu54 (residue Glu54 amide 1H-15N, Free PHD vs PHD+peptide): 0.0548
CSP Glu54, OC9 vs OC9 L3A (residue Glu54 amide, PHD+OC9 vs PHD+OC9 L3A): 0.0034
CSP Gly32 (residue Gly32 amide 1H-15N, Free PHD vs PHD+peptide): 0.1585
CSP Gly32, OC9 vs OC9 L3A (residue Gly32 amide, PHD+OC9 vs PHD+OC9 L3A): 0.0220
CSP Gly36 (residue Gly36 amide 1H-15N, Free PHD vs PHD+peptide): 0.1019
CSP Gly36, OC9 vs OC9 L3A (residue Gly36 amide, PHD+OC9 vs PHD+OC9 L3A): 0.0055
CSP Gly58 (residue Gly58 amide 1H-15N, Free PHD vs PHD+peptide): 0.0491
CSP Gly58, OC9 vs OC9 L3A (residue Gly58 amide, PHD+OC9 vs PHD+OC9 L3A): 0.0055
CSP His31 (residue His31 amide 1H-15N, Free PHD vs PHD+peptide): 0.2104
CSP His31, OC9 vs OC9 L3A (residue His31 amide, PHD+OC9 vs PHD+OC9 L3A): 0.0065
CSP His49 (residue His49 amide 1H-15N, Free PHD vs PHD+peptide): 0.0983
